Results published in ChEMBL document CHEMBL3991601, “The target landscape of clinical kinase drugs” (Science, 2017).
Activity calls are given as the source filed them.

Legend:
[1] = target: Serine/threonine-protein kinase ATR (Homo sapiens, UniProt Q13535)
[2] = target: Cell division cycle 7-related protein kinase (Homo sapiens, UniProt O00311)
UMP-CMP kinase = target: T1, UMP-CMP kinase (Homo sapiens, UniProt P30085)
T1 sequence (P30085 whole entry): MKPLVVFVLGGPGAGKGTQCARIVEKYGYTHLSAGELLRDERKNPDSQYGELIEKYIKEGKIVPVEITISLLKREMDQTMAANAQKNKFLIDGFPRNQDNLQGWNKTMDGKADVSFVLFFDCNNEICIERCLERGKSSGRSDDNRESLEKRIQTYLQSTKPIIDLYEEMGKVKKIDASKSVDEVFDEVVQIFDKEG

[3] = target: T2, ATP-dependent RNA helicase DHX30 (Homo sapiens, UniProt Q7L2E3)
T2 sequence (Q7L2E3 whole entry): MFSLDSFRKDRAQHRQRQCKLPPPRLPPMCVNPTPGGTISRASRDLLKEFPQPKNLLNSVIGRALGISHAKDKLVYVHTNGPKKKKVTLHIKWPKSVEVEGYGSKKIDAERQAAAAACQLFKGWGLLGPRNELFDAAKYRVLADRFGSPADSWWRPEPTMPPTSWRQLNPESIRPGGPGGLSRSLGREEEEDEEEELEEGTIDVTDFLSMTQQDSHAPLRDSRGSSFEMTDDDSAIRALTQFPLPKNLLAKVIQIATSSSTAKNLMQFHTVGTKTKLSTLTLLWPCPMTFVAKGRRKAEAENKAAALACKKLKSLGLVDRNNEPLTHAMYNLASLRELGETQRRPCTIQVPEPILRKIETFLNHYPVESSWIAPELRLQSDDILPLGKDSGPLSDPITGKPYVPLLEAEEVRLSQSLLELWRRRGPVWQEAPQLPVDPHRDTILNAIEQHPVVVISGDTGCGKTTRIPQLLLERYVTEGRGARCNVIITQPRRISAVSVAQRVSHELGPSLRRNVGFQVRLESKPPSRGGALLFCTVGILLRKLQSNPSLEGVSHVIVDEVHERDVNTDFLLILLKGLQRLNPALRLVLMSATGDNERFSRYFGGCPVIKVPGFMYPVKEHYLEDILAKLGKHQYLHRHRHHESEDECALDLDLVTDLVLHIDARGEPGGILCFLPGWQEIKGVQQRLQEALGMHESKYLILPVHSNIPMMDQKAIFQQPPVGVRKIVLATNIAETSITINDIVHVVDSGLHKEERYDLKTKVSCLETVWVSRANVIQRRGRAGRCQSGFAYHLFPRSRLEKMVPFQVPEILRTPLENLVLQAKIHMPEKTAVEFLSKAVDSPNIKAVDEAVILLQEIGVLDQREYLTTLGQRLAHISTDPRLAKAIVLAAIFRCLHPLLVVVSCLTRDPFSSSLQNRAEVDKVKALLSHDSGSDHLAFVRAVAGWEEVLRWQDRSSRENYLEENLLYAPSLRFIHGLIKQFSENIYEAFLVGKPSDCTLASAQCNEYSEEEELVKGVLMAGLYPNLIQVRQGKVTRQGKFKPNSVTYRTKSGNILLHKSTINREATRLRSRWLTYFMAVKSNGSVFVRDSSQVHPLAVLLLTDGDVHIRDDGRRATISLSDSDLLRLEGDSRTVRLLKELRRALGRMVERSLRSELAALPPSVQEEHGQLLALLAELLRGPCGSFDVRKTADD

[4] = target: T3, Isoleucine--tRNA ligase, mitochondrial (Homo sapiens, UniProt Q9NSE4)
T3 sequence (Q9NSE4 whole entry): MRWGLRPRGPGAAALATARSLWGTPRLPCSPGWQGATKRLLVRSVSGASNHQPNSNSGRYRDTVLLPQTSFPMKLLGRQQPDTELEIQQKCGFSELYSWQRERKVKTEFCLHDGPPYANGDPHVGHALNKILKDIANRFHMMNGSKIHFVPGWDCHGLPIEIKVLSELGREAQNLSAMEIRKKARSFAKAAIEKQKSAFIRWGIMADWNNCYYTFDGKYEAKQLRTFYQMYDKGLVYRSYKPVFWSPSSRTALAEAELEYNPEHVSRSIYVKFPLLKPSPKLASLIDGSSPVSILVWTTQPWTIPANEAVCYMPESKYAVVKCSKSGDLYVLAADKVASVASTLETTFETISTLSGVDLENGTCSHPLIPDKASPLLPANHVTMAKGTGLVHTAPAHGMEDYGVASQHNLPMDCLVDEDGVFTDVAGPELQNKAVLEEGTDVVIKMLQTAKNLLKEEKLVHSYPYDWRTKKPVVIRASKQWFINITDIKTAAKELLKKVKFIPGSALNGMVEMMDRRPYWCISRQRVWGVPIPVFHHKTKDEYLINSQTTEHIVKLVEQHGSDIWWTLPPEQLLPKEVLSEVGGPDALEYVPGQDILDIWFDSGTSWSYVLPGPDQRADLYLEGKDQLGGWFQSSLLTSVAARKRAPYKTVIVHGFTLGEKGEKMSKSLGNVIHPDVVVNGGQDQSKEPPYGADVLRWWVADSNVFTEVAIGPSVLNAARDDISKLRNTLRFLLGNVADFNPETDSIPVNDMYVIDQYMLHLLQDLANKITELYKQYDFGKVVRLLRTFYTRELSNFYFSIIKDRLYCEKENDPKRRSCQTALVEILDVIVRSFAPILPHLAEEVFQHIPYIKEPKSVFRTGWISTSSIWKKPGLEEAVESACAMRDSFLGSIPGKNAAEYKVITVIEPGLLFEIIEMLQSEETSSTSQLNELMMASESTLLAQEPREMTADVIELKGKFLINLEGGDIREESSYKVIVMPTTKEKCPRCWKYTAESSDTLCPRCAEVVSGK

[5] = target: Serine/threonine-protein kinase Nek7 (Homo sapiens, UniProt Q8TDX7)
[6] = target: High affinity nerve growth factor receptor (Homo sapiens, UniProt P04629)
[7] = target: Membrane-associated progesterone receptor component 1 (Homo sapiens, UniProt O00264)
[8] = target: Proto-oncogene tyrosine-protein kinase receptor Ret (Homo sapiens, UniProt P07949)
[9] = target: Rho-associated protein kinase 1 (Homo sapiens, UniProt Q13464)
[10] = target: Serine/threonine-protein kinase 24 (Homo sapiens, UniProt Q9Y6E0)
[11] = target: Serine/threonine-protein kinase pim-2 (Homo sapiens, UniProt Q9P1W9)
[12] = target: Dual specificity protein kinase CLK4 (Homo sapiens, UniProt Q9HAZ1)
Also: in the data inactive means no Kd found up to 30 µM.

Dual specificity protein kinase CLK4, sequence (Q9HAZ1 whole entry): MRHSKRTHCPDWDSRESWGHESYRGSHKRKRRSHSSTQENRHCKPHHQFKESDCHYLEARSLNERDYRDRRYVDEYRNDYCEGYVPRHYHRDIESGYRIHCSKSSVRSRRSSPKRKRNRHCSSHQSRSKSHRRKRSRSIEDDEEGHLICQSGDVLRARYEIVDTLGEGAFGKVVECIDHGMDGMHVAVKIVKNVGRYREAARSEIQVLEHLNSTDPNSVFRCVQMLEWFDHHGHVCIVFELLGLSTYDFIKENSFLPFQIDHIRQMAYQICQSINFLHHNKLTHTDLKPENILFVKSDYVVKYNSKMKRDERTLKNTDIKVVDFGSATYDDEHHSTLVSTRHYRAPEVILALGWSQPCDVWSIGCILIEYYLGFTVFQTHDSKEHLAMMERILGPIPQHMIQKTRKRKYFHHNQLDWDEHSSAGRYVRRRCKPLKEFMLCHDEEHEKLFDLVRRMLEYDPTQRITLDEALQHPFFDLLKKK
Rho-associated protein kinase 1, sequence (Q13464 whole entry): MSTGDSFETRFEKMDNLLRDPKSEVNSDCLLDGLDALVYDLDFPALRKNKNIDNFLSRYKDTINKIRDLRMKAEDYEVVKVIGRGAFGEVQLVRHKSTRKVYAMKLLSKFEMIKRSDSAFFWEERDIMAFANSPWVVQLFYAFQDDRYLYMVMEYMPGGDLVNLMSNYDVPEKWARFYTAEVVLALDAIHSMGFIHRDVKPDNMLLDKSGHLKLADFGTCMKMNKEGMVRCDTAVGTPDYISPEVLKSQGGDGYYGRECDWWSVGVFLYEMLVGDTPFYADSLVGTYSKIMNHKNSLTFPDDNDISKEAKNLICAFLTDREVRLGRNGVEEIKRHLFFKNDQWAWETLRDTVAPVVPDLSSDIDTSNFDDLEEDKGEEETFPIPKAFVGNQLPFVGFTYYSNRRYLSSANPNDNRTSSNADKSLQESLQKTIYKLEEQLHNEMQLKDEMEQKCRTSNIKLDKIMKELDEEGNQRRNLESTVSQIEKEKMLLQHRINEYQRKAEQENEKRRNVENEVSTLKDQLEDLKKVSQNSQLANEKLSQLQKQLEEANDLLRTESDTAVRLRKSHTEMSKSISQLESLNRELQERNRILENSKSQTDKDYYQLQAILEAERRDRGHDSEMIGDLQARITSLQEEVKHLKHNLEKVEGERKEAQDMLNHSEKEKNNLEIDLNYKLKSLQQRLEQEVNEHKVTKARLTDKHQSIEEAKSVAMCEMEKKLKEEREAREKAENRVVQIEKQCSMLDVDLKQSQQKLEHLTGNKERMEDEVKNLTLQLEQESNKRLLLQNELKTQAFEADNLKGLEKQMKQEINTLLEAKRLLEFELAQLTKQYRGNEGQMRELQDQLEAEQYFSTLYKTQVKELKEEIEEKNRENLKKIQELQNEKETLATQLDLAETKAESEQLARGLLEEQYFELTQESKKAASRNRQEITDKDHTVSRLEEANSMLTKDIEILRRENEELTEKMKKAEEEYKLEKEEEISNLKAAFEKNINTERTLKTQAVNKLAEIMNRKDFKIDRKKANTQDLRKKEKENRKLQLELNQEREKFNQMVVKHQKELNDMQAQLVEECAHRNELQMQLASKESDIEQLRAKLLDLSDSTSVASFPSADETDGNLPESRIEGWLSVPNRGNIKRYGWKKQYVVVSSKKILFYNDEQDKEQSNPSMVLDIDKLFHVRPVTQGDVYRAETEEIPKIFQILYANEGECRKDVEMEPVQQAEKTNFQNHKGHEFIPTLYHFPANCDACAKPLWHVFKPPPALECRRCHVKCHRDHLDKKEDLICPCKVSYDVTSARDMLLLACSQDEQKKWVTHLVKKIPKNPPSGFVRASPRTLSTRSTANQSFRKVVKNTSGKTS
Proto-oncogene tyrosine-protein kinase receptor Ret, sequence (P07949 whole entry): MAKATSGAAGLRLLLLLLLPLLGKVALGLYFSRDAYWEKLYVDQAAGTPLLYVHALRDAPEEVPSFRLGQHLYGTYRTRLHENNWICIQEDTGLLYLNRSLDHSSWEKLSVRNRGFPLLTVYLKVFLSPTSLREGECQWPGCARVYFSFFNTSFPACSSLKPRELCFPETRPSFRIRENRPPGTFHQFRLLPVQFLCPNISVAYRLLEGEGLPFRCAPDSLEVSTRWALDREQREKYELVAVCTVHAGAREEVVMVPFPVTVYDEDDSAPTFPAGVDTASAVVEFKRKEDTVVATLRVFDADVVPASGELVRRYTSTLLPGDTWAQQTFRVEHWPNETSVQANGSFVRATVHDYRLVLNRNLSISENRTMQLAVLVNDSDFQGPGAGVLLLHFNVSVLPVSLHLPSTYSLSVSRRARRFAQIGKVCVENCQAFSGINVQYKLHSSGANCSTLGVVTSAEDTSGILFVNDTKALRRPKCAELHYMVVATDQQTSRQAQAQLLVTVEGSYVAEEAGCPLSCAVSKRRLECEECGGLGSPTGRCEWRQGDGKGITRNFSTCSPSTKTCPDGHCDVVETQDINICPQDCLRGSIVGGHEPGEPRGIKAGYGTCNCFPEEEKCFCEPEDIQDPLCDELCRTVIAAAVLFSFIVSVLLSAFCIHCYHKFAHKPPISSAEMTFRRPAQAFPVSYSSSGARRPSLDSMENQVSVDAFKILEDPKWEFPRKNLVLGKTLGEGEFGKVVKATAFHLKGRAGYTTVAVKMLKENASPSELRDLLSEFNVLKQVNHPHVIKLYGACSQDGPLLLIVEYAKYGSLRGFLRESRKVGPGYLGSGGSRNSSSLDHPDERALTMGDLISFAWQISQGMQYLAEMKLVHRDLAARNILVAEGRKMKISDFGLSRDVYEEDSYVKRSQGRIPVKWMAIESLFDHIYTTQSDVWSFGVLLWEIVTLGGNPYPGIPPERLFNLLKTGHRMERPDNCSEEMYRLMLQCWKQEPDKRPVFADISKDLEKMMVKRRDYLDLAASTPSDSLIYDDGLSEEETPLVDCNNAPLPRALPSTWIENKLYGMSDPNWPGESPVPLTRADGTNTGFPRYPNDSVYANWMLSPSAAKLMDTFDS
Serine/threonine-protein kinase Nek7, sequence (Q8TDX7 whole entry): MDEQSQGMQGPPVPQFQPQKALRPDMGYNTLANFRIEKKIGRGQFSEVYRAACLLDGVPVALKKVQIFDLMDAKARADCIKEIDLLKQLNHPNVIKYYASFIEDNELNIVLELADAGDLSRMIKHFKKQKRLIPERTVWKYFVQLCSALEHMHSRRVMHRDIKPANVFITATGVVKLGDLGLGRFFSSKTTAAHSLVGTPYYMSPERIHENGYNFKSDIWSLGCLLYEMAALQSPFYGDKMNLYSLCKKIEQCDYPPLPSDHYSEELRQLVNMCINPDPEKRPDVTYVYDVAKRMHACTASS
Serine/threonine-protein kinase pim-2, sequence (Q9P1W9 whole entry): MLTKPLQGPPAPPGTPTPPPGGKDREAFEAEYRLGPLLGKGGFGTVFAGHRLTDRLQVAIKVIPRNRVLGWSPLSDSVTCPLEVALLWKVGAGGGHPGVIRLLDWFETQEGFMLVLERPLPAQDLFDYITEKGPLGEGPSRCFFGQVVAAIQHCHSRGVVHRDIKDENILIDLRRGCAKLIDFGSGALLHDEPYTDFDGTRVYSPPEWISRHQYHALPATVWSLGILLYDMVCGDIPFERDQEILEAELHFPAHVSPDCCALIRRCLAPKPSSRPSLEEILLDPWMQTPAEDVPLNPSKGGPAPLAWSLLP
Cell division cycle 7-related protein kinase, sequence (O00311 whole entry): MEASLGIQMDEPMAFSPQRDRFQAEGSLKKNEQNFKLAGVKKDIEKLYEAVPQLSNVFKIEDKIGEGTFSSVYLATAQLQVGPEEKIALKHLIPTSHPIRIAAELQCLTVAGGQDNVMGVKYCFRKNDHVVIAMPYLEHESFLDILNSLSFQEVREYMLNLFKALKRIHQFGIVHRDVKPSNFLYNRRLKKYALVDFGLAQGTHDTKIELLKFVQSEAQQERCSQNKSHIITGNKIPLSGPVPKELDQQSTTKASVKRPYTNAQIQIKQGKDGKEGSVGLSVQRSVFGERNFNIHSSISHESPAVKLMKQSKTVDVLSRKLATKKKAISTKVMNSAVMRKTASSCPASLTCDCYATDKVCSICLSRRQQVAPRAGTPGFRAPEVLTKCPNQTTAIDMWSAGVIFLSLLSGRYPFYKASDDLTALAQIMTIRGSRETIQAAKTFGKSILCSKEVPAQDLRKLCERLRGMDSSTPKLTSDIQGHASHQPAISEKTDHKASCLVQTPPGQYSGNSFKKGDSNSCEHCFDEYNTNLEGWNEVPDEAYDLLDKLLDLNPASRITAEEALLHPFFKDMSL
Serine/threonine-protein kinase 24, sequence (Q9Y6E0 whole entry): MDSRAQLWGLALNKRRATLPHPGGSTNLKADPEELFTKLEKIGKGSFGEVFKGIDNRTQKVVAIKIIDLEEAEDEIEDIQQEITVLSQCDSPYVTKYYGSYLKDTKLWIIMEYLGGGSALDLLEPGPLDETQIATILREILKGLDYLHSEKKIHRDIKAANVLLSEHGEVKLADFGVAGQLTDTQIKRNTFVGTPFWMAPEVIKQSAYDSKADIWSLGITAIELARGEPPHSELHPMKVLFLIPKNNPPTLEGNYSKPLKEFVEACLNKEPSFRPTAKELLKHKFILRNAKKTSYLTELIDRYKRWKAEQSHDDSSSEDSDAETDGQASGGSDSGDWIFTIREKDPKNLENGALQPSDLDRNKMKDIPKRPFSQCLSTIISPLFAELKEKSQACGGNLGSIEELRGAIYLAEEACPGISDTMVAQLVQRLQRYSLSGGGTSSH
Membrane-associated progesterone receptor component 1, sequence (O00264 whole entry): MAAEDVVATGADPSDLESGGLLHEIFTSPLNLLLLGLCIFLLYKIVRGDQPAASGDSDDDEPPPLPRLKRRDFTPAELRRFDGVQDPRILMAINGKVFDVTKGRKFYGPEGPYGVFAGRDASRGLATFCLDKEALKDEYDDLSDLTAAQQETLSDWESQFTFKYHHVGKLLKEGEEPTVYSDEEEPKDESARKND

Kd [1] | Kd [6] | Kd [7] | Kd [10] | Kd [11] | Kd [12] | SMILES | Kd [2] | Kd (UMP-CMP kinase) | Kd [3] | Kd [4] | Kd [5] | Kd [8] | Kd [9]
> 30 µM (inactive) | > 30 µM (inactive) | > 30 µM (inactive) | > 30 µM (inactive) |  |  | COc1cc(Nc2ncc(F)c(Nc3ccc4c(n3)N(COP(=O)(O)O)C(=O)C(C)(C)O4)n2)cc(OC)c1OC [FOSTAMATINIB] | > 30 µM (inactive) | > 30 µM (inactive) | > 30 µM (inactive) | > 30 µM (inactive) | > 30 µM (inactive) | 1.15 µM (active) | > 30 µM (inactive)
> 30 µM (inactive) | > 30 µM (inactive) | > 30 µM (inactive) | > 30 µM (inactive) | > 30 µM (inactive) |  | CNC(=O)c1cc(COc2nnc(Nc3ccc(Cl)cc3)c3ccoc23)ccn1 [TELATINIB] |  |  |  |  |  | > 30 µM (inactive) | 
 | > 30 µM (inactive) | > 30 µM (inactive) | > 30 µM (inactive) |  | > 30 µM (inactive) | S=C(NCc1ccc2c(c1)OCO2)N1CCN(c2ncnc3c2oc2ccccc23)CC1 [AMUVATINIB] | > 30 µM (inactive) | > 30 µM (inactive) | > 30 µM (inactive) | > 30 µM (inactive) | > 30 µM (inactive) | > 30 µM (inactive) | > 30 µM (inactive)
> 30 µM (inactive) |  | > 30 µM (inactive) | > 30 µM (inactive) | > 30 µM (inactive) |  | O=c1[nH]c([C@@H]2CCCN2)nc2c1oc1ccc(Cl)cc12 | > 30 µM (inactive) |  | > 30 µM (inactive) |  |  | > 30 µM (inactive) | 
> 30 µM (inactive) | > 30 µM (inactive) | > 30 µM (inactive) | > 30 µM (inactive) |  | > 30 µM (inactive) | O=C(O)c1ccc2c(c1)nc(Nc1cccc(Cl)c1)c1ccncc12 [SILMITASERTIB] |  |  |  |  | > 30 µM (inactive) | > 30 µM (inactive) | 
 |  |  |  |  |  | O=S(=O)(c1cccc2cnccc12)N1CCCNCC1 [FASUDIL] | > 30 µM (inactive) | > 30 µM (inactive) | > 30 µM (inactive) |  | > 30 µM (inactive) |  | 
 | 4.11 µM (active) | > 30 µM (inactive) | > 30 µM (inactive) |  | > 30 µM (inactive) | COc1cc2nccc(Oc3ccc(NC(=O)C4(C(=O)Nc5ccc(F)cc5)CC4)cc3)c2cc1OC [CABOZANTINIB] | > 30 µM (inactive) | > 30 µM (inactive) | > 30 µM (inactive) | > 30 µM (inactive) | > 30 µM (inactive) |  | > 30 µM (inactive)
 | > 30 µM (inactive) |  | > 30 µM (inactive) | > 30 µM (inactive) | > 30 µM (inactive) | Cc1cc(C(=O)Nc2cc(Oc3ccc4nc(NC(=O)C5CC5)cn4n3)ccc2C)n(C)n1 [TAK-593] |  |  | > 30 µM (inactive) |  |  |  | > 30 µM (inactive)
> 30 µM (inactive) | > 30 µM (inactive) | > 30 µM (inactive) | > 30 µM (inactive) |  | > 30 µM (inactive) | NC(=O)c1ccc(N(C(N)=O)c2c(F)cccc2F)nc1-c1ccc(F)cc1F [VX-702] |  | > 30 µM (inactive) | > 30 µM (inactive) |  | > 30 µM (inactive) | > 30 µM (inactive) | > 30 µM (inactive)

SMILES | Kd [1] | Kd [6] | Kd [7] | Kd [10] | Kd [11] | Kd [12] | Kd [2] | Kd (UMP-CMP kinase) | Kd [3] | Kd [4] | Kd [5] | Kd [8] | Kd [9]
COc1cc(F)c(F)c(Nc2ccc(I)cc2F)c1NS(=O)(=O)C1(C[C@H](O)CO)CC1 [REFAMETINIB] | > 30 µM (inactive) | > 30 µM (inactive) |  |  |  | > 30 µM (inactive) |  |  | > 30 µM (inactive) | > 30 µM (inactive) | > 30 µM (inactive) | > 30 µM (inactive) | > 30 µM (inactive)
CC1(COc2ccc3c(c2)ncn3-c2ccc3cccc(N4CCC(N)CC4)c3n2)COC1 [CRENOLANIB] |  | 0.008 µM (active) |  | 0.057 µM (active) |  |  | > 30 µM (inactive) | 0.003 µM (active) | > 30 µM (inactive) | > 30 µM (inactive) | > 30 µM (inactive) | 0.81 µM (active) | > 30 µM (inactive)
Cc1c(NC(=O)OC[C@@H]2COCCN2)cn2ncnc(Nc3ccc4c(cnn4Cc4cccc(F)c4)c3)c12 [AC-480] |  | > 30 µM (inactive) |  | > 30 µM (inactive) | > 30 µM (inactive) |  |  |  |  |  |  | > 30 µM (inactive) | > 30 µM (inactive)
Cc1c(Cn2c(C)nc3c(C(=O)O)cc(N4CCOCC4)cc32)cccc1C(F)(F)F [GSK-2636771] | > 30 µM (inactive) | > 30 µM (inactive) | > 30 µM (inactive) | > 30 µM (inactive) |  | > 30 µM (inactive) | > 30 µM (inactive) | > 30 µM (inactive) |  | > 30 µM (inactive) | > 30 µM (inactive) | > 30 µM (inactive) | > 30 µM (inactive)
Cn1cc(-c2[nH]c3cc(NC(=O)[C@H](N)C4CCCCC4)cc4c3c2C=NNC4=O)cn1 | > 30 µM (inactive) | > 30 µM (inactive) | > 30 µM (inactive) | > 30 µM (inactive) |  | > 30 µM (inactive) | > 30 µM (inactive) | > 30 µM (inactive) | > 30 µM (inactive) | > 30 µM (inactive) | > 30 µM (inactive) | 0.01 µM (active) | > 30 µM (inactive)
C=CC(=O)Nc1cc(Nc2nccc(-c3cn(C)c4ccccc34)n2)c(OC)cc1N(C)CCN(C)C [OSIMERTINIB] |  | > 30 µM (inactive) | > 30 µM (inactive) |  |  | > 30 µM (inactive) |  | > 30 µM (inactive) | > 30 µM (inactive) | > 30 µM (inactive) | > 30 µM (inactive) | > 30 µM (inactive) | > 30 µM (inactive)
CNC(=O)c1ccc(Nc2ncc(C(F)(F)F)c(NCc3nccnc3N(C)S(C)(=O)=O)n2)cc1 [DEFACTINIB] | > 30 µM (inactive) |  | > 30 µM (inactive) | > 30 µM (inactive) | > 30 µM (inactive) |  | > 30 µM (inactive) |  | > 30 µM (inactive) |  |  | 27.5 µM (active) | > 30 µM (inactive)
